Read-outs that look alike come from different tables or passages of the source.
Key:
[1] = cited from earlier work
[2] = antiparkinsonian drugs; cited from earlier work
[3] = parent drug; cited from earlier work
[4] = in vivo; cited from earlier work
treated patients = conditions: cited from earlier work; for Psychiatric side-effects: anti-epileptics
healthy volunteer = experiment: Example 2: volunteer with lower back pain, Soma with neuromodulators; type: in vivo, human
Procedure: A healthy volunteer was prescribed 250 mg two times a day Soma by their family doctor for reduction of lower back pain. […] The volunteer agreed to take Soma during the day together with the neuromodulation treatment. They took Soma in the morning and afternoon together with Pseudoephedrine followed 15 minutes later by Guaifenisin.

patient = experiment: Example 1: patient with tooth pain, Soma with neuromodulators; type: in vivo, human; conditions: Soma with 60 mg Pseudoephedine, 600 mg Guaifenesin 10 min later
Procedure: A patient had experienced tooth pain. The patient was given the following treatment: at 11:00 a.m.-co-administration of Soma (Carisoprodol) with 60 mg of Pseudoephedine. At 11:10 a.m.-600 mg of Guaifenesin. […] At no time during the treatment did the patient feel somnolent or have any desire to sleep.

[5] = cited from earlier work; remark: listed apart in the source
subject = experiment: Example 4: Flunitrazepam with pseudoephedrine and Mucinex, subject report
[6] = cited from earlier work; remark: listed apart in the source
[7] = cited from earlier work; remark: listed apart in the source
[8] = stated in words (injection / IV)
[9] = Soma with Pseudoephedrine, Guaifenisin 15 minutes later, two-day regimen
[10] = oral ingestion 75-100 mg/kg in humans

CN1CCc2cccc3c2[C@H]1Cc1ccc(O)c(O)c1-3 [Apomorphine]
Tmax [1, 8]: (fast, but injection) | Psychiatric side-effects [2]: Sedation, psychomotor agitation, anxiety,

NCC(CC(=O)O)c1ccc(Cl)cc1 (stereo not shown) [Baclofen]
Half-life ([1]; in vivo): 1.5 to 4 h | Tmax ([1]; in vivo): 0.5 to 1 h

CN1[C@@H]2CC[C@H]1C[C@@H](OC(c1ccccc1)c1ccccc1)C2 [Benzatropine]
Half-life ([1]; in vivo): 36 h | Tmax ([1]; in vivo): 1 to 2 h | Psychiatric side-effects [2]: Sedation, anxiety, psychosis, delirium,

OC(CCN1CCCCC1)(c1ccccc1)C1CC2C=CC1C2 (stereo not shown) [Biperiden]
Half-life ([1]; in vivo): 18 to 24 h | Tmax ([1]; in vivo): 1.5 h

O=C1CN=C(c2ccccn2)c2cc(Br)ccc2N1 [Bromazepam]
Elimination Half-Life [3]: 10 to 20 h

CC(C)C[C@H]1C(=O)N2CCC[C@H]2[C@]2(O)O[C@](NC(=O)[C@@H]3C=C4c5cccc6[nH]c(Br)c(c56)C[C@H]4N(C)C3)(C(C)C)C(=O)N12 [Bromocriptine]
Half-life ([1]; in vivo): 7 h | Tmax ([1]; in vivo): 1 to 2 h | Psychiatric side-effects [2]: Sedation, psychomotor agitation, anxiety,

C=CCN1C[C@H](C(=O)N(CCCN(C)C)C(=O)NCC)C[C@@H]2c3cccc4[nH]cc(c34)C[C@H]21 [Cabergoline]
Half-life ([1]; in vivo): 63 to 69 h | Tmax ([1]; in vivo): 0.5 to 4 h | Psychiatric side-effects [2]: Sedation, psychomotor agitation, anxiety,

NC(=O)N1c2ccccc2C=Cc2ccccc21 [Carbamazepine]
Elimination Half-Life [4]: about 12 hours | Psychiatric side-effects (treated patients): Depression, agitation, sedation, psychosis, cognitive

CCCC(C)(COC(N)=O)COC(=O)NC(C)C (stereo not shown) [Carisoprodol]
Half-life ([1]; in vivo): 2.5 h | Tmax ([1]; in vivo): 1.5 to 2 h | sedative side-effect (healthy volunteer; Soma 250 mg two times a day alone): suffered from the sedative side-effect of Soma | back pain (healthy volunteer; [9]): back pain was effectively reduced | sedation reported (healthy volunteer; [9]): did not feel sedated | sedation or other side-effects reported by patient (patient): without any sedation or other side-effects | pain reported by patient (patient; tooth pain): less pain than prior to the procedure

CNC1=Nc2ccc(Cl)cc2C(c2ccccc2)=[N+]([O-])C1 [Chlordiazepoxide]
Elimination Half-Life [3]: 5 to 30 h

N#CCCN1C(=O)C(O)N=C(c2ccccc2F)c2cc(Cl)ccc21 (stereo not shown) [Cinolazepam]
Elimination Half-Life [3]: 9 h

CN1C(=O)CC(=O)N(c2ccccc2)c2cc(Cl)ccc21 [Clobazam]
Elimination Half-Life [3]: 12 to 60 h

O=C1CN=C(c2ccccc2Cl)c2cc([N+](=O)[O-])ccc2N1 [Clonazepam]
Elimination Half-Life [3]: 18 to 50 h | Tmax ([5]; CNS active agent): 240 min | bioactivity ([5]; CNS active agent): 90%

CN1CCN(C2=Nc3cc(Cl)ccc3Nc3ccccc32)CC1 [Clozapine]
Tmax ([5]; CNS active agent): 150 min

CN(C)CCC=C1c2ccccc2C=Cc2ccccc21 [Cyclobenzaprine]
Half-life ([1]; in vivo): 8 to 37 h | Tmax ([1]; in vivo): 1 to 2 h | Half-life ([1]; in vivo, listed as Flexeril): 24 to 72 h | Tmax ([1]; in vivo, listed as Flexeril): 1 h | Elimination Half-Life [4]: 1 to 3 days

CN1C(=O)CN=C(c2ccccc2)c2cc(Cl)ccc21 [Diazepam]
bioactivity ([5]; CNS active agent): 97%

Clc1ccc2c(c1)C(c1ccccc1)=NCc1nncn1-2 [Estazolam]
Elimination Half-Life [3]: 10 to 24 h

Fc1ccc(C(c2ccc(F)cc2)N2CCN(C/C=C/c3ccccc3)CC2)cc1 [Flunarizine]
Half-life ([1]; in vivo): 456 h | Tmax ([1]; in vivo): 1 h

CN1C(=O)CN=C(c2ccccc2F)c2cc([N+](=O)[O-])ccc21 [Flunitrazepam]
subject-reported effects (subject; Flunitrazepam 0.5 mg, 15 minutes later pseudoephedrine 60 mg and Mucinex 600 mg): a little “loopy” | subject-reported effects (subject; Flunitrazepam 1.0 mg, at the same time pseudoephedrine 60 mg and Mucinex 600 mg): started to feel tranquilized

O=C(O)CCCO [GHB, g-Hydroxybutyric acid]
Tmax ([6]; 25 mg/kg): approximately 30 minutes | Tmax ([6]; 50 mg/kg): around 45 minutes | peak blood levels [6, 10]: 90 to 100 µg/mL | time of peak blood levels after ingestion [6, 10]: 1 to 2 h | onset of action ([6]; orally): ≤ 15 min | Tmax ([5]; CNS active agent): 30 to 120 min

NCC1(CC(=O)O)CCCCC1 [Gabapentin, 1-(aminomethyl)-cyclohexylacetic acid]
Psychiatric side-effects (treated patients): Sedation, agitation, fatigue

CC1=CC(=O)N2CC(=O)N(C)c3ccc(Cl)cc3C2(c2ccccc2)O1 (stereo not shown) [Ketazolam]
Elimination Half-Life [3]: 2 h

Nc1nnc(-c2cccc(Cl)c2Cl)c(N)n1 [Lamotrigine]
Psychiatric side-effects (treated patients): Sedation, depression, agitation, psychosis | Psychosis, % of treated patients (treated patients): (0.3% of treated patients)

CC[C@@H](C(N)=O)N1CCCC1=O [Levetiracetam]
Psychiatric side-effects (treated patients): Irritability, sedation and psychosis

CCN(CC)C(=O)N[C@H]1C=C2c3cccc4[nH]cc(c34)C[C@H]2N(C)C1 [Lisuride]
Half-life ([1]; in vivo): 2 h | Tmax ([1]; in vivo): 1.1 to 1.3 h

CN1CCN(/C=C2\N=C3CN=C(c4ccccc4Cl)c4cc([N+](=O)[O-])ccc4N3C2=O)CC1 [Loprazolam]
Elimination Half-Life [3]: 6 to 12 h

CN1C(=O)C(O)N=C(c2ccccc2Cl)c2cc(Cl)ccc21 (stereo not shown) [Lormetazepam]
Elimination Half-Life [3]: 10 to 12 h

CN1CCN=C(c2ccccc2)c2cc(Cl)ccc21 [Medazepam]
Elimination Half-Life [3]: 36 to 200 h

CCOC(=O)C1(c2ccccc2)CCN(C)CC1 [Meperidine(Pethidine), Meperidine]
Half-life ([1]; in vivo): 3 to 5 h | Tmax ([1]; oral): oral, up to 1.5 h | Tmax [1, 8]: IV, several min

Cc1cc(C)cc(OCC2CNC(=O)O2)c1 (stereo not shown) [Metaxalone]
Half-life ([1]; in vivo): 5 to 12 h | Tmax ([1]; in vivo): 3 h | duration ([7]; in vivo): four to six hours

CCC(=O)C(CC(C)N(C)C)(c1ccccc1)c1ccccc1 (stereo not shown) [Methadone]
Tmax ([1]; in vivo): 1 to 7.5 h

COc1ccccc1OCC(O)COC(N)=O (stereo not shown) [Methocarbamol]
Half-life ([1]; in vivo): 1 to 2 h | Tmax ([1]; in vivo): 1 to 2 h | Half-life ([1]; in vivo, listed as Robaxin): 1.14 to 1.24 h | Tmax ([1]; in vivo, listed as Robaxin): 0.5 to 1 h

COc1ccc2c(c1)N(C[C@H](C)CN(C)C)c1ccccc1S2 [Methotrimeprazine]
Half-life ([1]; in vivo): 20 h | Tmax ([1]; in vivo): 1 to 4 h

COCCc1ccc(OCC(O)CNC(C)C)cc1 (stereo not shown) [Metoprolol]
Half-life ([1]; in vivo): 3 to 7 h | Tmax ([1]; in vivo): (fast) up to 1 h

COc1ccc(OC)c(C(O)CNC(=O)CN)c1 (stereo not shown) [Mitodrin]
Tmax ([5]; selected neuromodulators): 15 to 30 min

O=C1CN=C(c2ccccc2)c2cc([N+](=O)[O-])ccc2N1 [Nitrazepam]
Elimination Half-Life [3]: 15 to 38 h

Cc1cc2c(s1)Nc1ccccc1N=C2N1CCN(C)CC1 [Olanzapine]
Tmax ([5]; CNS active agent): 300 to 480 min | bioactivity ([5]; CNS active agent): 40%

Cc1ccccc1C(OCCN(C)C)c1ccccc1 (stereo not shown) [Orphenadrine]
Half-life ([1]; in vivo): 13 to 20 h | Tmax ([1]; in vivo): 2 h

CCC1(c2ccccc2)C(=O)NC(=O)NC1=O [Phenobarbital, 5-ethyl-5-phenyl barbituric acid]
Tmax ([5]; CNS active agent): 120 min

CNC[C@H](O)c1cccc(O)c1 [Phenylephrine]
Tmax ([5]; selected neuromodulators): 10 to 15 min | duration of anti-hypotensive effect ([7]; after a single intravascular injection): approximately 20 minutes

CCCN[C@H]1CCc2nc(N)sc2C1 [Pramipexole]
Tmax ([1]; in vivo): 1 h | Psychiatric side-effects [2]: Sedation, psychomotor agitation, anxiety,

CCC1(c2ccccc2)C(=O)NCNC1=O [Primidone]
Psychiatric side-effects (treated patients): Sedation, mood lability, psychotic symptoms, delirium

CN[C@@H](C)[C@@H](O)c1ccccc1 [Pseudoephedrine]
Tmax ([5]; selected neuromodulators): 30 to 60 min

Fc1ccccc1C1=NCC(=S)N(CC(F)(F)F)c2ccc(Cl)cc21 [Quazepam]
Elimination Half-Life [3]: 25 to 100 h

CCCN(CCC)CCc1cccc2c1CC(=O)N2 [Ropinirole]
Half-life ([1]; in vivo): 6 h | Tmax ([1]; in vivo): 1 to 2 h | Psychiatric side-effects [2]: Sedation, psychomotor agitation, anxiety,

CCCC(CCC)C(=O)[O-].[Na+] [Sodium valproate]
Psychiatric side-effects (treated patients): Sedation, hallucinations, depressive symptoms, delirium

CN1C(=O)CN=C(C2=CCCCC2)c2cc(Cl)ccc21 [Tetrazepam]
Elimination Half-Life [3]: 3 to 26 h

Cc1ccsc1C(=CCCN1CCC[C@@H](C(=O)O)C1)c1sccc1C [Tiagabine]
Psychiatric side-effects (treated patients): Psychosis (0.8% of treated patients), depressive symptoms | Psychosis, % of treated patients (treated patients): 0.8%

C=CC(N)CCC(=O)O (stereo not shown) [Vigabatrin (GVG), Gamma vinyl GABA]
Tmax ([5]; CNS active agent): 24 to 60 min

CCCN1C[C@H](CSC)C[C@@H]2c3cccc4[nH]cc(c34)C[C@H]21 [pergolide]
Psychiatric side-effects [2]: Sedation, psychomotor agitation, anxiety,

Reference: patent US9579299B2, “CNS pharmaceutical compositions and methods of use” (TARGIA PHARMACEUTICALS, priority 2008, dated 2017)
